The source of these data is US6821980B1, “Substituted 5-benzyl-2,4-diaminopyrimidines” (Basilea Pharmaceutica AG, priority 1999, dated 2004).

In brackets after ≈: the same amount, converted by molar mass. Read-outs that look alike come from different tables or passages of the source.

Assay [1] has as its system Streptococcus pneumoniae 1/1. Kind of assay: MIC against Streptococcus pneumoniae 1/1. It is filed as cell-based. Particulars: Table 2, Streptococcus pneumoniae 1/1, trimethoprim- and penicillin-resistant, serotype 6, clinical isolate; for MIC: read-out: MIC Sp1/1.
Assay [2] deals with T1, purified DHFR of strain Sp1/1 of Streptococcus pneumoniae (Streptococcus pneumoniae serotype 4, UniProt Q54801).
T1 sequence (Q54801 1-168 I100L): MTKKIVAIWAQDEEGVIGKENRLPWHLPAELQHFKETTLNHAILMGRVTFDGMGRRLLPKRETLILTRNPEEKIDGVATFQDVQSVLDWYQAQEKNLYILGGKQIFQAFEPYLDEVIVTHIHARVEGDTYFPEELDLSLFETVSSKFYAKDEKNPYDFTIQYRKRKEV
In kind it is biochemical. Particulars: Table 2; IC50 against purified DHFR of strain Sp1/1.

For assay [3], the target named is purified DHFR of strain 157/4696 of Staphylococcus aureus (Staphylococcus aureus, UniProt P13955). Kind of assay: biochemical.
purified DHFR of strain 157/4696 of Staphylococcus aureus, sequence (P13955 whole entry): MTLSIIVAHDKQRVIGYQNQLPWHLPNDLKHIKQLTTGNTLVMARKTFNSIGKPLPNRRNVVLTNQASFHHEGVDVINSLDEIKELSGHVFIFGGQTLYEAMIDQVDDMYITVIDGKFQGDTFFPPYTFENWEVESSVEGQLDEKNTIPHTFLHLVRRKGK
The subject of assay [4] is Staphylococcus aureus 101. Kind of assay: MIC against Staphylococcus aureus 101. In kind it is cell-based. Particulars: Table 2, Staphylococcus aureus 101, MRSA- and trimethoprim-resistant, clinical isolate; for MIC: read-out: MIC Sa101.

For the molecule `CCOc1cc(Cc2cnc(N)nc2N)cc(OCC)c1-c1ccc(NC)cc1` [Example 04-ab, 5-(2,6-Diethoxy-4′-methylamino-biphenyl-4-ylmethyl)-pyrimidine-2,4-diamine], the MIC in assay [1] stood at 4 µg/mL (≈ 10.2 µM); in assay [4] it was 8 µg/mL (≈ 20.3 µM). Also, the figures for the IC50 in assay [2] and in assay [3] were 120 nM and 1400 nM, respectively.

As for `CCOc1cc(Cc2cnc(N)nc2N)cc(OCC)c1-c1ccc(CN(C)CCF)cc1` [Example 04-ac, 5-(2,6-Diethoxy-4′-{[N-(2-fluoro-ethyl)-N-methyl-amino]-methyl}-biphenyl-4-ylmethyl)-pyrimidine-2,4-diamine], the values for the MIC in assay [1] and in assay [4] were 4 µg/mL (≈ 8.82 µM) and 8 µg/mL (≈ 17.6 µM), respectively. Also, the results for the IC50 in assay [2] and in assay [3] were 59 nM and 450 nM, respectively.

Regarding `CCOc1cc(Cc2cnc(N)nc2N)cc(OCC)c1-c1ccc(CN(C)CCF)c(F)c1` [Example 04-ad, 5-(2,6-Diethoxy-3′-fluoro-4′-{[N-(2-fluoro-ethyl)-N-methyl-amino]-methyl}-biphenyl-4-ylmethyl)-pyrimidine-2,4-diamine], the MIC in assay [1] came to 4 µg/mL (≈ 8.48 µM); in assay [4] it was 8 µg/mL (≈ 17 µM). The IC50 amounted to 170 nM in assay [2] and 2700 nM in assay [3].

Consider `CCOc1cc(Cc2cnc(N)nc2N)cc(OCC)c1-c1cc(C)cc(N)c1` [Example 04-ae, 5-(5′-Amino-2,6-diethoxy-3′-methyl-biphenyl-4-ylmethyl)-pyrimidine-2,4-diamine], for which the MIC in assay [1] and in assay [4] was 8 µg/mL (≈ 20.3 µM) each time. For the same molecule, the IC50 in assay [2] amounted to 19 nM; in assay [3] it was 1400 nM.

For `CCOc1cc(Cc2cnc(N)nc2N)cc(OCC)c1-c1ccc(CNCCF)cc1` [Example 04-ag, 5-{2,6-Diethoxy-4′-[(2-fluoro-ethylamino)-methyl]-biphenyl-4-ylmethyl}-pyrimidine-2,4-diamine], the MIC in assay [1] and in assay [4] was 8 µg/mL (≈ 18.2 µM) throughout. Also, the values for the IC50 in assay [2] and in assay [3] were 350 nM and 1800 nM, respectively.

As for `CCOc1cc(Cc2cnc(N)nc2N)cc(OCC)c1-c1ccc(NS(C)(=O)=O)cc1` [Example 04-b, N-[4′-(2,4-Diamino-pyrimidin-5-ylmethyl)-2′,6′-diethoxy-biphenyl-4-yl]-methanesulphonamide], the MIC in assay [1] came out at 2 µg/mL (≈ 4.37 µM); in assay [4], 8 µg/mL (≈ 17.5 µM). Moreover, the IC50 in assay [2] was 36 nM; in assay [3], 1700 nM.

With `CCOc1cc(Cc2cnc(N)nc2N)cc(OCC)c1-c1ccc(N)cc1` [Example 04-c, 5-(4′-Amino-2,6-diethoxy-biphenyl-4-ylmethyl)-pyrimidine-2 4-diamine], the MIC in assay [1] amounted to 4 µg/mL (≈ 10.5 µM); in assay [4] it was 8 µg/mL (≈ 21.1 µM). Besides, the IC50 in assay [2] was found to be 40 nM; in assay [3], 700 nM.

For `CCOc1cc(Cc2cnc(N)nc2N)cc(OCC)c1-c1ccc(CN2CCOCC2)nc1` [Example 04-d, 5-[3,5-Diethoxy-4-(6-morpholin-4-ylmethyl-pyridin-3-yl)-benzyl]-pyrimidine-2,4-diamine], the results for the MIC in assay [1] and in assay [4] were 4 µg/mL (≈ 8.61 µM) and 8 µg/mL (≈ 17.2 µM), respectively. Besides, the values for the IC50 in assay [2] and in assay [3] were 65 nM and 2100 nM, respectively.

As to `CCOc1cc(Cc2cnc(N)nc2N)cc(OCC)c1-c1ccc(NC(C)=O)c(C)c1` [Example 04-e, N-[4′-(2,4-Diamino-pyrimidin-5-ylmethyl)-2′,6′-diethoxy-3-methyl-biphenyl-4yl]-acetamide], the values for the MIC in assay [1] and in assay [4] were 4 µg/mL (≈ 9.18 µM) and 8 µg/mL (≈ 18.4 µM), respectively. The IC50 in assay [2] turned out to be 30 nM; in assay [3], 1800 nM.

Regarding `CCOc1cc(Cc2cnc(N)nc2N)cc(OCC)c1-c1ccc(N)c(C)c1` [Example 04-f, 5-(4′-Amino-2,6-diethoxy-3′-methyl-biphenyl-4ylmethyl)-pyximidine-2,4-diamine], the figures for the MIC in assay [1] and in assay [4] were 2 µg/mL (≈ 5.08 µM) and 4 µg/mL (≈ 10.2 µM), respectively. Also, the IC50 in assay [2] was 55 nM; in assay [3] it was 1500 nM.

For the molecule `CCOc1cc(Cc2cnc(N)nc2N)cc(OCC)c1-c1ccc(NC(=O)CN2CCOCC2)cc1` [Example 04-g, N-[4′-(2,4-Diamino-pyrimidin-5-ylmethyl)-2′,6′-diethoxy-biphenyl-4-yl]-2-morpholin-4-yl-acetamide], the MIC was found to be 4 µg/mL (≈ 7.9 µM) in assay [1] and 8 µg/mL (≈ 15.8 µM) in assay [4]. Also, the IC50 in assay [2] was determined as 40 nM; in assay [3], 1100 nM.

Take `CCOc1cc(Cc2cnc(N)nc2N)cc(OCC)c1-c1ccc(N)c(C#N)c1` [Example 04-h, 4-Amino-4′-(2,4-diamino-pyrimidin-5-ylmethyl)-2′,6′diethoxy-biphenyl-3-carbonitrile]: the MIC came to 2 µg/mL (≈ 4.94 µM) in assay [1] and 4 µg/mL (≈ 9.89 µM) in assay [4]. Also, the IC50 in assay [2] is 42 nM; in assay [3], 1000 nM.

`CCOc1cc(Cc2cnc(N)nc2N)cc(OCC)c1-c1ccc(OC)c(N)c1` [Example 04-i, 5-(3′-Amino-2,6-diethoxy-4′-methoxy-biphenyl-4-ylmethyl)-pyrimidine-2,4-diamine]: the results for the MIC in assay [1] and in assay [4] were 4 µg/mL (≈ 9.77 µM) and 8 µg/mL (≈ 19.5 µM), respectively. Moreover, the IC50 came out at 43 nM in assay [2] and 1200 nM in assay [3].

In the case of `CCOc1cc(Cc2cnc(N)nc2N)cc(OCC)c1-c1ccc(CN2CCOCC2)c(N)c1` [Example 04-j, 5-(3′-Amino-2,6-diethoxy-4′-morpholino-4-ylmethy-biphenyl)-pyrimidine-2,4-diamine], the “MIC Sp1/1” value in assay [1] was 4 µg/mL (≈ 8.36 µM). Also, the IC50 in assay [2] amounted to 48 nM; in assay [3] (Table 2, IC50 against purified DHFR of strain 157/4696 (highly trimethoprim-resistant; clinical isolate), read-out: DHFR Sa1) it was 850 nM. Further, in assay [4], the “MIC Sa101” value was found to be 8 µg/mL (≈ 16.7 µM).

Regarding `CCOc1cc(Cc2cnc(N)nc2N)cc(OCC)c1-c1cnc(N2CCOCC2)nc1` [Example 04-k, 5-[3,5-Diethoxy-4-(2-morpholin-4-yl-pyrimidin-5-yl)-benzyl]-pyrimidine-2,4-diamine], the MIC is 4 µg/mL (≈ 8.86 µM) in assay [1] and 8 µg/mL (≈ 17.7 µM) in assay [4]. The results for the IC50 in assay [2] and in assay [3] were 95 nM and 10000 nM, respectively.

Consider `CCOc1cc(Cc2cnc(N)nc2N)cc(OCC)c1-c1ccc(N)c(OC)c1` [Example 04-l, 5-(4′-Amino-2,6-diethoxy-3′-methoxy-biphenyl-4-ylmethyl)-pyrimidine-2,4-diamine], for which the MIC in assay [1] was determined as 4 µg/mL (≈ 9.77 µM); in assay [4], 8 µg/mL (≈ 19.5 µM). Further, the IC50 in assay [2] came to 82 nM; in assay [3] it was 1900 nM.

Consider `CCOc1cc(Cc2cnc(N)nc2N)cc(OCC)c1-c1ccc2ncccc2c1` [Example 04-m, 5-(3,5-Diethoxy-4-quinolin-6-yl-benzyl)-pyrimidine-2,4-diamine], for which the MIC in assay [1] and in assay [4] was 8 µg/mL (≈ 19.3 µM) throughout. Besides, the IC50 in assay [2] was 72 nM; in assay [3], 1800 nM.

Take `CCOc1cc(Cc2cnc(N)nc2N)cc(OCC)c1-c1ccc(F)c(N)c1` [Example 04-n, 5-(3′-Amino-2,6-diethozy-4′-fluoro-biphenyl-4-ylmethyl)-pyrimidine-2,4-diamine]: the MIC was 2 µg/mL (≈ 5.03 µM) in assay [1] and 8 µg/mL (≈ 20.1 µM) in assay [4]. Further, the figures for the IC50 in assay [2] and in assay [3] were 68 nM and 1400 nM, respectively.

Consider `CCOc1cc(Cc2cnc(N)nc2N)cc(OCC)c1-c1ccc(S(N)(=O)=O)cc1` [Example 04-o, 4′-(2,4-Diamino-gyrimidin-5-ylmethyl)-2′,6′-diethoxy-biphenyl-4-sulphonic acid amide], for which the MIC in assay [1] and in assay [4] was 8 µg/mL (≈ 18 µM) each time. Also, the figures for the IC50 in assay [2] and in assay [3] were 60 nM and 1300 nM, respectively.

Take `CCOc1cc(Cc2cnc(N)nc2N)cc(OCC)c1-c1ccc(N)nc1` [Example 04-q, 5-[4-(6-Amino-pyridin-3-yl)-3,5-diethoxy-benzyl]-pyrimidine-2,4-diamine]: the MIC in assay [1] amounted to 4 µg/mL (≈ 10.5 µM); in assay [4], 8 µg/mL (≈ 21 µM). Also, the IC50 in assay [2] is 69 nM; in assay [3] it was 1900 nM.

For `CCOc1cc(Cc2cnc(N)nc2N)cc(OCC)c1-c1ccc(N)c(F)c1` [Example 04-r, 5-(4′-Amino-2,6-diethoxy-3′-fluoro-biphenyl-4-3dmethyl)-Ryrimidine-2,4-diamine], the MIC in assay [1] amounted to 4 µg/mL (≈ 10.1 µM); in assay [4], 8 µg/mL (≈ 20.1 µM). Also, the IC50 in assay [2] was 85 nM; in assay [3], 3200 nM.

In the case of `CCOc1cc(Cc2cnc(N)nc2N)cc(OCC)c1-c1cc(N)cc(F)c1` [Example 04-t, 5-(5′-Amino-2,6-diethoxy-3′-fluoro-biphenyl-4-ylmethyl)-pyrimidine-2,4-diamine], the MIC in assay [1] was found to be 2 µg/mL (≈ 5.03 µM); in assay [4], 8 µg/mL (≈ 20.1 µM). Further, the figures for the IC50 in assay [2] and in assay [3] were 31 nM and 1200 nM, respectively.

For `CCOc1cc(Cc2cnc(N)nc2N)cc(OCC)c1-c1cccc(C=O)c1` [Example 04-u, 4′-(2,4-Diamino-pyrimidin-5-ylmethyl)-2′,6′-diethoxy-biphenyl-3-carbaldehyde], the MIC came out at 4 µg/mL (≈ 10.2 µM) in assay [1] and 8 µg/mL (≈ 20.4 µM) in assay [4]. The IC50 was determined as 65 nM in assay [2] and 1900 nM in assay [3].

Turning to `CCOc1cc(Cc2cnc(N)nc2N)cc(OCC)c1-c1ccc(CNCC(F)(F)F)cc1` [Example 04-v, 5-[2,6-Diethoxy-4′-[(2,2,2-trifluoroethylamino)-methyl]-biphenyl-4-ylmethyl]-pyrimidine-2,4-diamine], the MIC in assay [1] worked out at 4 µg/mL (≈ 8.41 µM); in assay [4], 8 µg/mL (≈ 16.8 µM). In addition, the IC50 in assay [2] is 150 nM; in assay [3], 1300 nM.
